In PubChem BioAssay (NCI):
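Growth conditions: 96-well plates. Treatment: test compound, 48 hours, 5 concentrations. Analysis: linear interpolation between bracketing concentrations; unreached endpoints set to highest concentration. Abbreviation: GI50, concentration required for 50% inhibition of growth. TGI: concentration producing complete growth inhibition.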

How the values were obtained:
Experiment in all cases: NCI tumour cell line growth inhibition, 48 h
OVCAR-3 ovarian = system: OVCAR-3 ovarian
SK-OV-3 ovarian = system: SK-OV-3 ovarian
HL-60(TB) leukemia = system: HL-60(TB) leukemia
TK-10 renal = system: TK-10 renal
DU-145 prostate = system: DU-145 prostate
NCI-H23 lung = system: NCI-H23 lung
IGROV1 ovarian = system: IGROV1 ovarian
SR leukemia = system: SR leukemia
SN12C renal = system: SN12C renal
BT-549 breast = system: BT-549 breast
HOP-62 NSCLC = system: HOP-62 NSCLC
UACC-62 melanoma = system: UACC-62 melanoma
CAKI-1 renal = system: CAKI-1 renal
SK-MEL-2 melanoma = system: SK-MEL-2 melanoma
LOX IMVI melanoma = system: LOX IMVI melanoma
OVCAR-5 ovarian = system: OVCAR-5 ovarian
M14 melanoma = system: M14 melanoma
MALME-3M melanoma = system: MALME-3M melanoma
SNB-19 CNS = system: SNB-19 CNS
SF-539 CNS = system: SF-539 CNS
PC-3 prostate = system: PC-3 prostate
HT29 colon = system: HT29 colon
HCC-2998 colon = system: HCC-2998 colon
T-47D breast = system: T-47D breast
NCI-H226 lung = system: NCI-H226 lung
HS 578T breast = system: HS 578T breast
SF-295 CNS = system: SF-295 CNS
UACC-257 melanoma = system: UACC-257 melanoma
A549 NSCLC = system: A549 NSCLC
786-0 renal = system: 786-0 renal
MDA-MB-231 breast = system: MDA-MB-231 breast
SW-620 colon = system: SW-620 colon
SK-MEL-5 melanoma = system: SK-MEL-5 melanoma
MOLT-4 leukemia = system: MOLT-4 leukemia
U251 CNS = system: U251 CNS
K-562 leukemia = system: K-562 leukemia
SNB-75 CNS = system: SNB-75 CNS
KM12 colon = system: KM12 colon
RXF 393 renal = system: RXF 393 renal
MDA-MB-435 = system: MDA-MB-435
HCT-116 colon = system: HCT-116 colon
HOP-92 NSCLC = system: HOP-92 NSCLC
RPMI-8226 leukemia = system: RPMI-8226 leukemia
A498 renal = system: A498 renal
SF-268 CNS = system: SF-268 CNS
OVCAR-8 ovarian = system: OVCAR-8 ovarian
EKVX NSCLC = system: EKVX NSCLC
NCI-H522 lung = system: NCI-H522 lung
OVCAR-4 ovarian = system: OVCAR-4 ovarian
SK-MEL-28 melanoma = system: SK-MEL-28 melanoma

In the case of `COC12C=C/C(=C(/C(=O)OCc3ccccn3)C(=O)CCCCCCCCC3(OC)C=C/C(=C(/C(=O)OCc4ccccn4)C(=O)CCCCCCCC1)O3)O2`, the GI50 (OVCAR-3 ovarian) is reported as 326 nM, the TGI (OVCAR-3 ovarian) is reported as 1100 nM and the GI50 (SK-OV-3 ovarian) is reported as 889 nM. The TGI (SK-OV-3 ovarian) was 60900 nM, the GI50 (HL-60(TB) leukemia) was 306 nM and the TGI (HL-60(TB) leukemia) was 2170 nM. For the same compound, the GI50 (TK-10 renal) was 1690 nM, the TGI (TK-10 renal) was 4190 nM and the GI50 (DU-145 prostate) was 564 nM. The TGI (DU-145 prostate) was 1870 nM, the GI50 (NCI-H23 lung) was 249 nM and the TGI (NCI-H23 lung) was 689 nM. For the same compound, the GI50 (IGROV1 ovarian) was 421 nM, the TGI (IGROV1 ovarian) was 3730 nM and the GI50 (SR leukemia) was 364 nM. For the same compound, the TGI (SR leukemia) was > 100000 nM, the GI50 (SN12C renal) was 356 nM and the TGI (SN12C renal) was 1210 nM. For the same compound, the GI50 (BT-549 breast) was 401 nM, the TGI (BT-549 breast) was 2070 nM and the GI50 (HOP-62 NSCLC) was 318 nM. For the same compound, the TGI (HOP-62 NSCLC) was 1060 nM, the GI50 (UACC-62 melanoma) was 348 nM and the TGI (UACC-62 melanoma) was 1220 nM. For the same compound, the GI50 (CAKI-1 renal) was 481 nM, the TGI (CAKI-1 renal) was 3400 nM and the GI50 (SK-MEL-2 melanoma) was 1180 nM. For the same compound, the TGI (SK-MEL-2 melanoma) was 3850 nM, the GI50 (LOX IMVI melanoma) was 188 nM and the TGI (LOX IMVI melanoma) was 417 nM. For the same compound, the GI50 (OVCAR-5 ovarian) was 538 nM, the TGI (OVCAR-5 ovarian) was 5620 nM and the GI50 (M14 melanoma) was 252 nM. For the same compound, the TGI (M14 melanoma) was 571 nM, the GI50 (MALME-3M melanoma) was 325 nM and the TGI (MALME-3M melanoma) was 1380 nM. For the same compound, the GI50 (SNB-19 CNS) was 1430 nM, the TGI (SNB-19 CNS) was > 100000 nM and the GI50 (SF-539 CNS) was 557 nM. The TGI (SF-539 CNS) was 3200 nM, the GI50 (PC-3 prostate) was 719 nM and the TGI (PC-3 prostate) was 3980 nM. The GI50 (HT29 colon) was 423 nM, the TGI (HT29 colon) was 2890 nM and the GI50 (HCC-2998 colon) was 212 nM. The TGI (HCC-2998 colon) was 518 nM, the GI50 (T-47D breast) was 588 nM and the TGI (T-47D breast) was 6240 nM. It also gave a GI50 (NCI-H226 lung) of 250 nM, a TGI (NCI-H226 lung) of 648 nM and a GI50 (HS 578T breast) of 783 nM. For the same compound, the TGI (HS 578T breast) was > 100000 nM, the GI50 (SF-295 CNS) was 397 nM and the TGI (SF-295 CNS) was 2150 nM. For the same compound, the GI50 (UACC-257 melanoma) was 1050 nM, the TGI (UACC-257 melanoma) was 4270 nM and the GI50 (A549 NSCLC) was 626 nM. The TGI (A549 NSCLC) was 3490 nM, the GI50 (786-0 renal) was 326 nM and the TGI (786-0 renal) was 1050 nM. The GI50 (MDA-MB-231 breast) was 485 nM, the TGI (MDA-MB-231 breast) was > 100000 nM and the GI50 (SW-620 colon) was 385 nM. For the same compound, the TGI (SW-620 colon) was 2090 nM, the GI50 (SK-MEL-5 melanoma) was 221 nM and the TGI (SK-MEL-5 melanoma) was 492 nM. The GI50 (MOLT-4 leukemia) was 301 nM, the TGI (MOLT-4 leukemia) was > 100000 nM and the GI50 (U251 CNS) was 386 nM. The TGI (U251 CNS) was 1520 nM, the GI50 (K-562 leukemia) was 331 nM and the TGI (K-562 leukemia) was > 100000 nM. For the same compound, the GI50 (SNB-75 CNS) was 827 nM, the TGI (SNB-75 CNS) was 2370 nM and the GI50 (KM12 colon) was 354 nM. It also gave a TGI (KM12 colon) of 1390 nM, a GI50 (RXF 393 renal) of 192 nM and a TGI (RXF 393 renal) of 357 nM. For the same compound, the GI50 (MDA-MB-435) was 209 nM, the TGI (MDA-MB-435) was 480 nM and the GI50 (HCT-116 colon) was 223 nM. It also gave a TGI (HCT-116 colon) of 470 nM, a GI50 (HOP-92 NSCLC) of 1650 nM and a TGI (HOP-92 NSCLC) of 3540 nM. The GI50 (RPMI-8226 leukemia) was 371 nM, the TGI (RPMI-8226 leukemia) was 1850 nM and the GI50 (A498 renal) was 1060 nM. It also gave a TGI (A498 renal) of 2290 nM, a GI50 (SF-268 CNS) of 1120 nM and a TGI (SF-268 CNS) of 4810 nM. For the same compound, the GI50 (OVCAR-8 ovarian) was 406 nM, the TGI (OVCAR-8 ovarian) was > 100000 nM and the GI50 (EKVX NSCLC) was 614 nM. The TGI (EKVX NSCLC) was 3720 nM, the GI50 (NCI-H522 lung) was 345 nM and the TGI (NCI-H522 lung) was 1710 nM. It also gave a GI50 (OVCAR-4 ovarian) of 332 nM, a TGI (OVCAR-4 ovarian) of 2280 nM and a GI50 (SK-MEL-28 melanoma) of 481 nM. It also gave a TGI (SK-MEL-28 melanoma) of 3620 nM.
